Measured values from paper PMC4823954, “From fighting depression to conquering tumors: a novel tricyclic thiazepine compound as a tubulin polymerization inhibitor” (Cell Death & Disease, 2016).
Read-outs that look alike come from different tables or passages of the source.

Tests used:
[1] = system: H460TaxR; experiment: Cell viability assay (sulforhodamine B); format: cell-based, human; settings: for EC50: Homo sapiens, H460/TaxR
Method: (§1) All biological reagents and solvents were obtained from commercial suppliers and used as recommended. The human NSCLC cell line H460 and P-gp-overexpressing drug-resistant cell line H460TaxR were cultured in RPMI-1640 medium supplemented with 10% fetal bovine serum, 100 units/ml penicillin and […] streptomycin. The NHFB cell line NHFB was cultured in DMEM with the same supplements. All cells were maintained in a 37 °C incubator with 95% humidity and 5% CO2.
(§2) The cell viability was determined using the sulforhodamine B assay.[64] In brief, cells (4000 cells in 100 μl medium) were seeded in 96-well culture plates and incubated for 24 h. The cells were treated with the compounds or with an equal volume (0.1%) of DMSO for 72 h. The cell viability was calculated using the following formula: cell viability=Atreatment/Acontrol. The EC50 values were determined using the Sigma Plot 10.0 software package (Systat Software Inc., San Jose, CA, USA).

[2] = system: H460; experiment: Cell viability assay (sulforhodamine B); format: cell-based, human; settings: H460 cells, 72 h
Method: as §1, §2

[3] = Caco-2 cell bi-directional transport assay; format: in vitro ADME; settings: human; for Papp: Caco-2
Excerpt: (§3) As in vivo investigations are generally time consuming and expensive, it is advantageous to eliminate those compounds that are not suitable for animal experiments. One of the necessary steps is to screen the initial hits using assays testing their possible behaviors in vivo. To evaluate the drug-like properties of TBPT, a panel of in vitro assays was preformed (Table 1). The parallel artificial membrane permeability assay (PAMPA) was used to evaluate the cell permeability of the compounds. Compounds with a Pe >[…] are classified as highly permeable. […] The Caco-2 assay was used to predict the oral absorption values of the compounds in vivo. Compounds with a Caco-2 efflux ratio >2 may be subject to active efflux and should not be developed further. […] The half-life (T1/2) in human liver microsomes is used to predict the metabolism properties of compounds in vivo. […] A very long T1/2 (>24 h) increases the risk of cumulative toxicity and is not desirable. […] T1/2 in plasma indicates the stability of the drug in human blood; the high T1/2 values of these compounds indicated better stability in vivo. Plasma protein binding influences the distribution of drugs into body tissues, and compounds with high plasma protein binding (>99%) are limited in terms of the amount of free compound that are available to act on the targeted tissue.
(§4) The PAMPA and Caco-2 cell bi-directional transport assay of the derivatives were conducted as described in our previous report.[65], [66] The human liver microsome, plasma stability and plasma protein-binding assays were conducted following modified protocols reported by Cyprotex (Macclesfield, UK).[67], [68], [69], [70]

[4] = system: Caco-2; experiment: Caco-2 cell bi-directional transport assay; format: in vitro ADME; settings: Caco-2
Excerpt: as §3, §4

[5] = plasma protein binding; format: in vitro ADME
Excerpt: as §3, with “tissue. […]” for “tissue.”

[6] = target: T1, P-gp (Homo sapiens, UniProt P08183); experiment: P-gp ATPase activity assay; format: biochemical; settings: compared with DMSO; TBPT 2 μM, 1 h; human cell membrane P-gp fractions
T1 construct: purchased Promega Biotech, Madison, WI, USA
Method: The P-gp ATPase activity was determined in human cell membrane P-gp fractions using a luminescence-based assay.
The P-gp ATPase activity assay was conducted using the P-gp Glo Assay System following the manufacturer's protocol (Promega Biotech, Madison, WI, USA). […] Then, the luminescence was measured using a POLARstar Galaxy luminometer (BMG Labtech, Offenburg, Germany). The change in luminescence was calculated by comparing the Na3VO4-treated samples with the other compound-treated samples. The change in luminescence change is proportional to the ATP consumption in the samples, which correlated positively with the P-gp ATPase activity.

[7] = target: T2, tubulin (Sus scrofa, UniProt P02550+P02554); experiment: Tubulin polymerization assay (cell-free); format: biochemical; settings: fluorescence, 50 min, 37 °C, read-out: IC50 of tubulin polymerization (microtubule formation)
T2 construct: purchased Cytoskeleton, Denver, CO, USA
T2 sequence (P02554 whole entry): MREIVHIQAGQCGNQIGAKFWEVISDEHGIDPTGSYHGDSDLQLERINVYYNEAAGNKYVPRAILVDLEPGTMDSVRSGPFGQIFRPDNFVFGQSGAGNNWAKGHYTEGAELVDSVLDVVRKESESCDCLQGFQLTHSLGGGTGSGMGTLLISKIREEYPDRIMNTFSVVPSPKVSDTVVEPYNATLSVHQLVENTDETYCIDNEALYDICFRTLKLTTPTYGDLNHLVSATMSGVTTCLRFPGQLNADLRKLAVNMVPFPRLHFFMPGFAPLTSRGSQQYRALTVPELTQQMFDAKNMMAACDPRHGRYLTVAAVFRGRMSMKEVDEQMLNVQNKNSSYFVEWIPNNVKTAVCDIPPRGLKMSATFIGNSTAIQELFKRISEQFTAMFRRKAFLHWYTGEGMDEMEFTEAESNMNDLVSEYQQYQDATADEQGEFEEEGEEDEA
T2 sequence (P02550 whole entry): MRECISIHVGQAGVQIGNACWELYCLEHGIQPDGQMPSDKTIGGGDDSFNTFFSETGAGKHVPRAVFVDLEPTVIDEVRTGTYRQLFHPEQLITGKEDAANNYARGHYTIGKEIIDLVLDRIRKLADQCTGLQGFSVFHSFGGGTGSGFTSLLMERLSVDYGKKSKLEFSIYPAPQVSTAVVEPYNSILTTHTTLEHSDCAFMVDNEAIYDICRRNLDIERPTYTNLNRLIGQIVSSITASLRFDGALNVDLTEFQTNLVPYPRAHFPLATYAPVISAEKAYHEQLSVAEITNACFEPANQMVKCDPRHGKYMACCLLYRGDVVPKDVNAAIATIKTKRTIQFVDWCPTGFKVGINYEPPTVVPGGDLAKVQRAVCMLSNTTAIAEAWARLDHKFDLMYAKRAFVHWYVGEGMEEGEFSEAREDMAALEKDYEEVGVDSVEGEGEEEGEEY
Method: A fluorescence-based tubulin polymerization assay kit was used to monitor the polymerization process according to the manufacturer's instructions (Cytoskeleton, Denver, CO, USA). […] Tubulin solution (50 μl) was dispensed rapidly into each well.

[8] = system: H460TaxR; experiment: Mitochondrial membrane potential (JC-1); format: cell-based, human; settings: 2 μM, 12 h
Method: (§5) The mitochondrial membrane potential was determined using JC-1 dye (Beyotime, Beijing, China). NSCLC cells (4 × 10^4 cells in 0.5 ml) were seeded in 24-well culture plates. […] Carbonyl cyanide m-chlorophenylhydrazone (CCCP; 10 μM), a mitochondrial membrane disrupter, was used to treat cells for 20 min as a positive control. Then, the cells were incubated with 200 μl JC-1 working solution at 37 °C for 20 min. After the cells were washed in RPMI-1640 medium, they were observed and imaged using a fluorescence microscope (Olympus IX71).

[9] = system: H460; experiment: Mitochondrial membrane potential (JC-1); format: cell-based, human; settings: H460, 2 μM, 12 h
Method: as §5

[10] = target: T3, ABL1(F317I)-nonphosphorylated (Homo sapiens, UniProt P00519, F317I); experiment: KINOMEscan; format: binding; settings: read-out: % Ctrl
T3 construct: purchased DiscoveRx KINOMEscan

[11] = target: T4, ABL1(Q252H)-phosphorylated (Homo sapiens, UniProt P00519, Q252H); experiment: KINOMEscan; format: binding; settings: read-out: % Ctrl
T4 construct: purchased DiscoveRx KINOMEscan

[12] = target: T5, EGFR(G719C) (Homo sapiens, UniProt P00533, G719C); experiment: KINOMEscan; format: binding; settings: read-out: % Ctrl
T5 construct: purchased DiscoveRx KINOMEscan
T5 sequence (P00533 25-1210 G719C): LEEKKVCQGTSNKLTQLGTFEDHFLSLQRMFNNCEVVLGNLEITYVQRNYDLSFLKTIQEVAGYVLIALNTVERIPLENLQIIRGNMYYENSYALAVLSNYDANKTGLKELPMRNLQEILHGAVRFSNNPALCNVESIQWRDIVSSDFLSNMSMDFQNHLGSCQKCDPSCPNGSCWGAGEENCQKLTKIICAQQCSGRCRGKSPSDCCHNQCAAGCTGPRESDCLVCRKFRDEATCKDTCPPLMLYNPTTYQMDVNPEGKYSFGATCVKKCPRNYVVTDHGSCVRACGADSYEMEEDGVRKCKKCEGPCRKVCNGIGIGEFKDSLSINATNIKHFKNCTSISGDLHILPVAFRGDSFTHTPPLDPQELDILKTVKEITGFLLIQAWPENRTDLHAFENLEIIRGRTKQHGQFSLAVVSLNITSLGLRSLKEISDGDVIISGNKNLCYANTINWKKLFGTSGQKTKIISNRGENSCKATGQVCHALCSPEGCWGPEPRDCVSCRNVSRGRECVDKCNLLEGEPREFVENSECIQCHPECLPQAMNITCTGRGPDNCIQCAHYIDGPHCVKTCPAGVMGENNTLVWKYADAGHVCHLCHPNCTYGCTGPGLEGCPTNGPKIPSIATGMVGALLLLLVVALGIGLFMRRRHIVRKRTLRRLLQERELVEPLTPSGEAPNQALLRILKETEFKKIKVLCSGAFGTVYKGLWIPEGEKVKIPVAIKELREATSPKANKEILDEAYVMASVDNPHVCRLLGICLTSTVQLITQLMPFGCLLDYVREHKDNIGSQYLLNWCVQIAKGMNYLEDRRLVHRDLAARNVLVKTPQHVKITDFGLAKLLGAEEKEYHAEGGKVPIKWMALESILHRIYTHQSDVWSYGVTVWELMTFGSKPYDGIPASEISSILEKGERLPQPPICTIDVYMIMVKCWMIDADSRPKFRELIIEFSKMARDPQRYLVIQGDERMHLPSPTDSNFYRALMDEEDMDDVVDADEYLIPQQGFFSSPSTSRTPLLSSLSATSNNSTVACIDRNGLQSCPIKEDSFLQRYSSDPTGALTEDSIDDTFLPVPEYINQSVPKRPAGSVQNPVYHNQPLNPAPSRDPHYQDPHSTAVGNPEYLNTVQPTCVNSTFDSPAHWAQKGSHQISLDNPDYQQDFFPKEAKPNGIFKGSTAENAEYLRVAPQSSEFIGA

[13] = target: T6, EGFR(L747-S752del, P753S) (Homo sapiens, UniProt P00533, DEL747-752/P753S); experiment: KINOMEscan; format: binding; settings: read-out: % Ctrl
T6 construct: purchased DiscoveRx KINOMEscan
T6 sequence (P00533 with tags, fused parts or gaps DEL747-752/P753S limits assumed): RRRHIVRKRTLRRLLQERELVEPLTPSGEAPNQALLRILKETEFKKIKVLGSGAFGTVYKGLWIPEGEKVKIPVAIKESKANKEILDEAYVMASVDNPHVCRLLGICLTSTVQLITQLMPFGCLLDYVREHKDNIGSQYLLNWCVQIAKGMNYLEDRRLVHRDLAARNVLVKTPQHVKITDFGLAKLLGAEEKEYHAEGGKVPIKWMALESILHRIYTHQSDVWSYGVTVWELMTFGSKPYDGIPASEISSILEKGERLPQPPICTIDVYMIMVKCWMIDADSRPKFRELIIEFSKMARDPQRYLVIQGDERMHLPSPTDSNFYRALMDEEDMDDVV

[14] = system: EGFR(L747-T751del,Sins); experiment: KINOMEscan; format: binding, human
[15] = target: T7, FGFR3(G697C) (Homo sapiens, UniProt P22607, G697C); experiment: KINOMEscan; format: binding; settings: read-out: % Ctrl
T7 construct: purchased DiscoveRx KINOMEscan
T7 sequence (P22607 23-806 G697C): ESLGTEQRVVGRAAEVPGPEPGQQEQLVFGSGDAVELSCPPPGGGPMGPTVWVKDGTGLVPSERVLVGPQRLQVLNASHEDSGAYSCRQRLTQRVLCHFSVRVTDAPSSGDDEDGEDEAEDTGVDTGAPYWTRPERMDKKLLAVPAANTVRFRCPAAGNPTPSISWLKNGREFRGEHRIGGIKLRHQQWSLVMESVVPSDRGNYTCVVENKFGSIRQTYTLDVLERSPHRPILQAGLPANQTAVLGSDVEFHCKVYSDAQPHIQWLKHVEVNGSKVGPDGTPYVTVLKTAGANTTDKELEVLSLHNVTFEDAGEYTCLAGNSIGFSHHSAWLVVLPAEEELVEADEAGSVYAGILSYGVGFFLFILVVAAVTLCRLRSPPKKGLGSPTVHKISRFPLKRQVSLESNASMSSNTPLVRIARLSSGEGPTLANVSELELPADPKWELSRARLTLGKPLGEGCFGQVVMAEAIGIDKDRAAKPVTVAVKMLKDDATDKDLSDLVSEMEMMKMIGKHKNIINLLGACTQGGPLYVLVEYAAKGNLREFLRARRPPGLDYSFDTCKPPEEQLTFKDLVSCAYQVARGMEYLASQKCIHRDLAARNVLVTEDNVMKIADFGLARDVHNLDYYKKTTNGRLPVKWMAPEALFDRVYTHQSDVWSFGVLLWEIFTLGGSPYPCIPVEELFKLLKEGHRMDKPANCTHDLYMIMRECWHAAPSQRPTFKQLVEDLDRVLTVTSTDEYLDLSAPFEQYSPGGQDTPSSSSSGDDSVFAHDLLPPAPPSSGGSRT

[16] = target: T8, FLT3(D835H) (Homo sapiens, UniProt P36888, D835H); experiment: KINOMEscan; format: binding; settings: read-out: % Ctrl
T8 construct: purchased DiscoveRx KINOMEscan

[17] = target: T9, KIT(L576P) (Homo sapiens, UniProt P10721, L576P); experiment: KINOMEscan; format: binding; settings: read-out: % Ctrl
T9 construct: purchased DiscoveRx KINOMEscan
T9 sequence (P10721 26-976 L576P): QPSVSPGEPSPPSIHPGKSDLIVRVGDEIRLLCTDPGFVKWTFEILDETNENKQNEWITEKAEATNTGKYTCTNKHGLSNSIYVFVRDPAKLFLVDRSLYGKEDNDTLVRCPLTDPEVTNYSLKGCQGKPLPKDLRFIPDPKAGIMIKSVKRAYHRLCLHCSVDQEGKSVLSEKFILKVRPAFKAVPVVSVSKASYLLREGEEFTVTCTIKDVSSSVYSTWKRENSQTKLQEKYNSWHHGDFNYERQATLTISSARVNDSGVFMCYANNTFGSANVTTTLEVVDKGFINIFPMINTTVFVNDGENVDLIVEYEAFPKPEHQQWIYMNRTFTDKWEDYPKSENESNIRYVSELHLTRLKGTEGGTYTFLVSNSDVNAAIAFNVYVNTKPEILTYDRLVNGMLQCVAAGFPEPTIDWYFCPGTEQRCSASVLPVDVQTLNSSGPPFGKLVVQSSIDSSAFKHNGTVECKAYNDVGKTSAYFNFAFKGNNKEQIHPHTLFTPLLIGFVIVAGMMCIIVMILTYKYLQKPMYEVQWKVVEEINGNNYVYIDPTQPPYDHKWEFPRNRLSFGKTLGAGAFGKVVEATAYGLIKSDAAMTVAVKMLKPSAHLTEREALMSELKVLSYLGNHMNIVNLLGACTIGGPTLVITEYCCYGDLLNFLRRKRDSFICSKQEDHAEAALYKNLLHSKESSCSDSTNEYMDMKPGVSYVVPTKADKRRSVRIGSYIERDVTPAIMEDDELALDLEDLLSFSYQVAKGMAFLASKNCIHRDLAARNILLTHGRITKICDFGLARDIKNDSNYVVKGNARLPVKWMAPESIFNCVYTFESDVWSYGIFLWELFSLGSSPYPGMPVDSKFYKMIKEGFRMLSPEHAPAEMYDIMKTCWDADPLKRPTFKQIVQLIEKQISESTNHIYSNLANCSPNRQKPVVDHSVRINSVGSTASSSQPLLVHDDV

[18] = mouse, in vivo
Method: Five injections of vehicle and TBPT (30 or 60 mg/kg) were administered intravenously at days 1, 3, 5, 7 and 9 (arrows). Four injections of PTX (10 mg/kg) were administered intravenously at days 1, 3, 5 and 7. (a) The tumor volume was measured every other day. When the tumor volume in the solvent-treated group exceeded 1500 mm^3, the experiment was terminated. (b) Blood biochemical and hematological analyses. (c) The body weights of the mice were monitored every other day during the experiments. *P<0.05, Student's t-test with day 0, N=5
Figure 3 Histopathological examination of the major organs from TBPT or PTX-treated mouse tumor at the end of the experiments. The cross-sections of organs were stained with hematoxylin–eosin. […] The scale bars represent 50 μm and are uniform in each column
H460 and H460TaxR cells (5 × 10^6 cells in 100 μl PBS) were injected subcutaneously into the dorsal flank of each mouse. When the tumors reached volumes of 100 mm^3, the mice were divided randomly into four groups. The mice were treated every other day five times with intravenous injections of (1) vehicle (the solvent of TBPT: 60% PBS, 8% Cremophor EL, 8% EtOH, 12% poly propylene glycol and 12% PEG-400), (2) TBPT (30 mg/kg) or (3) TBPT (60 mg/kg). Another group was treated with PTX (10 mg/kg) every other day four times as the positive control. The tumor dimensions and body weights were measured every other day. The tumor volume was calculated according to a standard formula: volume=width^2 × length/2. The experiment was terminated and the mice were killed when the tumor volumes in the solvent-treated group exceeded 1500 mm^3. The mouse organs and blood were collected and used for hematoxylin–eosin staining and serum chemistry assay. TGI rates were assessed using the following formula: TGI=1− (Tt−T0)/(Ct−C0) × 100%. Tt and T0 indicate the tumor volumes of the treated group at days t and 0. Ct and C0 indicate the tumor volumes of the control group at days t and 0, respectively.

Cc1ccc(C2=Nc3cccnc3S(=O)(=O)c3ccccc32)cc1 [TBPT, 6-(p-tolyl)benzo[f] pyrido[2,3-b][1,4] thiazepine 11,11-dioxide]
Resistance Folds ([1]; EC50 in H460TaxR cells divided by EC50 in H460 cells): 1.3
EC50 ([1]; 72 h, H460TaxR cells): < 500 nM
EC50 ([1]; H460TaxR(+Rev), Reversan (P-gp inhibitor)): 610 ± 260 nM
EC50 [2]: 450 ± 190 nM
EC50 ([2]; Homo sapiens, NCI-H460, 72 h): < 500 nM
efflux ratio ([3]; Caco-2, Caco-2, read-out: Efflux ratio (B2A/A2B)): 0.4 to 0.8
Papp ([3]; read-out: Caco-2 Papp A/B): 34.5 ± 2.06 ×10⁻⁶ cm/s
Papp ([3]; read-out: Caco-2 Papp B/A): 20.6 ± 7 ×10⁻⁶ cm/s
Efflux ratio (B2A/A2B) [4]: 0.59±0.17
fraction unbound [5]: 0.0164
P-gp ATPase activity [6]: did not induce P-gp ATPase activity
IC50 [7]: 12600 nM
mitochondrial membrane potential [8]: decreased significantly
mitochondrial membrane potential [9]: decreased significantly
remaining binding at 5 µM ([10]; 5 μM): 89%
remaining binding at 10 µM ([10]; 10 μM): 100%
remaining binding at 5 µM ([11]; 5 μM): 83%
remaining binding at 10 µM ([11]; 10 μM): 100%
remaining binding at 5 µM ([12]; 5 μM): 73%
remaining binding at 10 µM ([12]; 10 μM): 100%
remaining binding at 5 µM ([13]; 5 μM): 76%
remaining binding at 10 µM ([13]; 10 μM): 91%
% Ctrl ([14]; 5 μM): 88%
% Ctrl ([14]; 10 μM): 98%
remaining binding at 5 µM ([15]; 5 μM): 100%
remaining binding at 10 µM ([15]; 10 μM): 82%
remaining binding at 5 µM ([16]; 5 μM): 100%
remaining binding at 10 µM ([16]; 10 μM): 97%
remaining binding at 5 µM ([17]; 5 μM): 78%
remaining binding at 10 µM ([17]; 10 μM): 100%
histopathological examination of the major organs [18]: No pathological changes were observed
